From US20230123334A1, “AMINO LIPID COMPOUND, PREPARATION METHOD THEREFOR, AND APPLICATION THEREOF” (SHENZHEN SHENXIN BIOTECHNOLOGY CO., LTD., priority 2020, published 2023)

Assays:
[1] = tested on: HEK293 cells; experiment: Preliminary screening as mRNA vectors, EGFP mRNA transfection of HEK293 cells; assay type: cell-based; conditions: HEK293 cells, 96-well plates, EGFP mRNA 50 ng per well; percentage of GFP fluorescent cells relative to total number of cells (Hoechst)
Summary of the method: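 Screening format: EGFP mRNA transfection (50 ng/well) into HEK293 in 10% FBS-supplemented DMEM. Percent green fluorescent cells, normalised to Hoechst nuclear count, gave the value; Lipofectamine2000 was the reference transfectant.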

[2] = tested on: HEK293 cells; experiment: Preliminary screening as DNA vectors, GFP transfection of HEK293 cells; assay type: cell-based; conditions: HEK293 cells; lipid/DOPE liposome with 75 ng plasmid DNA (psin-EGFP-IRES-Puro); number of cells expressing GFP divided by total number of nuclei (Hoechst)
Summary of the method: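 First, amino lipid and DOPE were vortexed in sodium acetate buffer (pH 5.6) to form liposomes. Next, these were held with 75 ng EGFP plasmid at room temperature for 30 min. Finally, HEK293 cells were added, cultured at 37° C., Hoechst-stained, and GFP+/total nuclei scored by imaging.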

Structure (SMILES) | Absolute mRNA transfection efficiency in HEK293 cells [1] | Absolute DNA transfection efficiency in HEK293 cells [2]
CCCCCCCCCCCCCCSc1nc(NCCN2CCCC2)nc(SCCCCCCCC)n1 [Compound S8S14D3] | 3.4% | 13.9%
CCCCCCCCCCCCNc1nc(NCCN(C)C)nc(N(CCCCCCCCCCCC)CCCCCCCCCCCC)n1 [N12^2N12D1] | 2.8% | 0.5%
CCCCCCCCCCSc1nc(NCCCN2CCN(C)CC2)nc(SCCCCCCCCCC)n1 [Compound S10S10D9] | 51.3% | 13.4%
CCCCCCCCCCCCCCCNc1nc(NCCCCCCC)nc(NCCN2CCN(C)CC2)n1 [Compound N7N15D5] | 0.0% | 0.0%
CCCCCCCCCCCCNc1nc(NCCCCCCCC)nc(NCCN2CCCC2)n1 [Compound N8N12D3] | 0.5% | 2.4%
CCCCCCCCCSc1nc(NCCCN(C)C)nc(SCCCCCCCCC)n1 [Compound S9S9D6] | 33.0% | 5.6%
CCCCCCCCCCCNc1nc(NCCCCCCCC)nc(NCCCN(C)C)n1 [Compound N8N11D6] | 0.1% | 0.3%
CCCCCCCCNc1nc(NCCCCCCC)nc(NCCCN2CCN(C)CC2)n1 [Compound N7N8D9] | 0.2% | 0.7%
CCCCCCCCCCCCNc1nc(NCCCCCCCCCCCC)nc(NCCN2CCN(C)CC2)n1 [Compound N12N12D5] | 0.8% | 0.4%
CCCCCCCCCCCNc1nc(NCCCCCCCCCCC)nc(NCCN2CCOCC2)n1 [Compound N11N11D2] | 1.4% | 0.0%
CCCCCCCCCCCCNc1nc(NCCCCCCCCCCC)nc(NCCN(C)C)n1 [Compound N11N12D1] | 0.3% | 0.0%
CCCCCCCCCCCCCCCCNc1nc(NCCCCCCCCCCCCCCCC)nc(NCCCN2CCN(C)CC2)n1 [Compound N16N16D9] | 0.0% | 1.9%
CCCCCCCCCCCCCCCCCCNc1nc(NCCCCCCCCCCCCCCC)nc(NCCCN2CCOCC2)n1 [Compound N15N18D8] | 0.0% | 0.9%
CCCCCCCCCCCCCCCCSc1nc(NCCCN2CCOCC2)nc(SCCCCCCCCCCC)n1 [Compound S11S16D8] | 0.9% | 4.7%
CCCCCCCCCSc1nc(NCCCN2CCOCC2)nc(SCCCCCCCCC)n1 [Compound S9S9D8] | 14.8% | 19.1%
CCCCCCCCCCCCCCCNc1nc(NCCCCCCCCCCCCC)nc(NCCN2CCCC2)n1 [Compound N13N15D3] | 4.7% | 1.4%
CCCCCCCCCCSc1nc(NCCN(CC)CC)nc(SCCCCCCCCCC)n1 [Compound S10S10D7] | 2.0% | 7.2%
CCCCCCCCCCCCCCCCCCNc1nc(NCCCCCCCCC)nc(NCCCN2CCN(C)CC2)n1 [Compound N9N18D9] | 3.1% | 0.3%
CCCCCCCCCCCCCCCCCCNc1nc(NCCCCCCCCCCCCCCCCCC)nc(NCCN(C)C)n1 [Compound N18N18D1] | 2.2% | 1.9%
CCCCCCCCCCCCCCCNc1nc(NCCCCCCCCC)nc(NCC2CCN(C)CC2)n1 [Compound N9N15D10] | 1.7% | 0.0%
CCCCCCCCCCCCCCCCCCNc1nc(NCCCCCCCC)nc(NCCN2CCCCC2)n1 [Compound N8N18D4] | 29.2% | 8.2%
CCCCCCCCCCCCCNc1nc(NCCCCCCCCC)nc(NCCCN2CCOCC2)n1 [Compound N9N13D8] | 0.0% | 0.0%
CCCCCCCCCCCCCCCSc1nc(NCCN2CCCC2)nc(SCCCCCCCCCCC)n1 [Compound S11S15D3] | 5.3% | 7.4%
CCCCCCCCCCCCCCSc1nc(NCCCN2CCOCC2)nc(SCCCCCCCCCCCC)n1 [Compound S12S14D8] | 1.3% | 3.7%

Structure (SMILES) | Absolute mRNA transfection efficiency in HEK293 cells [1] | Absolute DNA transfection efficiency in HEK293 cells [2]
CCCCCCCCCCCCCCCCNc1nc(NCCCCCCCCCCCCCCC)nc(NCCN2CCN(C)CC2)n1 [Compound N15N16D5] | 0.0% | 0.7%
CCCCCCCCCCCCCCCNc1nc(NCCN2CCN(C)CC2)nc(N(CCCCCCCCCCCC)CCCCCCCCCCCC)n1 [N15^2N12D5] | 3.7% | 2.8%
CCCCCCCCCCCCNc1nc(NCCCCCC)nc(NCCN(C)C)n1 [Compound N6N12D1] | 0.2% | 0.0%
CCCCCCCCCCCCNc1nc(NCCCCCCCCC)nc(NCCN(C)C)n1 [Compound N9N12D1] | 0.5% | 0.0%
CCCCCCCCCCCCCNc1nc(NCCN2CCCCC2)nc(N(CCCCCCCCCCCC)CCCCCCCCCCCC)n1 [N13^2N12D4] | 4.5% | 0.8%
CCCCCCCCCCCCCCCCSc1nc(NCCN(CC)CC)nc(SCCCCCCCCCCCCCCCC)n1 [Compound S16S16D7] | 0.0% | 0.5%
CCCCCCCCCCCCCCCCNc1nc(NCCCCCCCC)nc(NCCCN2CCOCC2)n1 [Compound N8N16D8] | 0.2% | 2.3%
CCCCCCCCCCCCSc1nc(NCCN(C)C)nc(SCCCCCCCCCCCC)n1 [Compound S12S12D1] | 0.6% | 0.5%
CCCCCCCCCCCCCCCCCCNc1nc(NCCCCCCC)nc(NCCN(CC)CC)n1 [Compound N7N18D7] | 0.0% | 0.0%
CCCCCCCCCNc1nc(NCCCCCCC)nc(NCC2CCN(C)CC2)n1 [Compound N7N9D10] | 0.1% | 0.4%
CCCCCCCNc1nc(NCCCCCCC)nc(NCCN2CCOCC2)n1 [Compound N7N7D2] | 0.0% | 0.0%
CCCCCCCCCCCCCCCCCCSc1nc(NCCN2CCN(C)CC2)nc(SCCCCCCCCCCCCCCC)n1 [Compound S15S18D5] | 0.4% | 0.3%
CCCCCCCCCCCCCCCCCCNc1nc(NCCCCCCCCCCC)nc(NCCN(C)C)n1 [Compound N11N18D1] | 7.2% | 3.4%
CCCCCCCCCCCCCCCCNc1nc(NCCCCCCC)nc(NCC2CCN(C)CC2)n1 [Compound N7N16D10] | 3.1% | 1.8%
CCCCCCCCCCCNc1nc(NCCCCCCC)nc(NCCN2CCOCC2)n1 [Compound N7N11D2] | 0.0% | 0.1%
CCCCCCCCCCCCCNc1nc(NCCCCCCC)nc(NCCN2CCN(C)CC2)n1 [Compound N7N13D5] | 0.9% | 0.9%
CCCCCCCCCCCCCCSc1nc(NCCCN2CCN(C)CC2)nc(SCCCCCCCCCCC)n1 [Compound S11S14D9] | 9.9% | 4.1%
CCCCCCCCCCSc1nc(NCCN2CCCC2)nc(SCCCCCCCCC)n1 [Compound S9S10D3] | 70.1% | 10.3%
CCCCCCCCCCCCCCCNc1nc(NCCCCCCCCCCC)nc(NCCN(C)C)n1 [Compound N11N15D1] | 0.6% | 1.3%
CCCCCCCCCCCCCNc1nc(NCCN(CC)CC)nc(N(CCCCCCCCCCCC)CCCCCCCCCCCC)n1 [N13^2N12D7] | 2.9% | 0.2%
CCCCCCCCNc1nc(NCCCCCC)nc(NCCN2CCCC2)n1 [Compound N6N8D3] | 0.4% | 0.1%
CCCCCCCCCCCCCCCSc1nc(NCCN(CC)CC)nc(SCCCCCCCCCCCCCCC)n1 [Compound S15S15D7] | 0.5% | 0.6%
CCCCCCCCCCCCCCCCSc1nc(NCC2CCN(C)CC2)nc(SCCCCCCCC)n1 [Compound S8S16D10] | 98.3% | 75.2%
CCCCCCCCCCCCCCCCNc1nc(NCCCCCCCCCCCC)nc(NCCN2CCN(C)CC2)n1 [Compound N12N16D5] | 1.4% | 0.1%
